Laboratory results taken from patent US5244905A, “N-substituted cycloalkyl and polycycloalkyl polyhydro-β-carboline-phenylalanine- and phenethylamine derivatives” (Warner-Lambert Company, priority 1991, dated 1993).

Columns and labels:
Central CCK Receptors = biological target: T1, Central CCK Receptors (Mus musculus, UniProt P56481); assay: Binding to central CCK receptors ([3H]-pentagastrin displacement, mouse cerebral cortical membranes); design: species or system mouse (male CFLP); settings: tritiated pentagastrin 2 nM, number of assays (n) = 2
T1 construct: from tissue; host or cells: cerebral cortex of male CFLP mice (washed membranes)
T1 sequence (P56481 1-453): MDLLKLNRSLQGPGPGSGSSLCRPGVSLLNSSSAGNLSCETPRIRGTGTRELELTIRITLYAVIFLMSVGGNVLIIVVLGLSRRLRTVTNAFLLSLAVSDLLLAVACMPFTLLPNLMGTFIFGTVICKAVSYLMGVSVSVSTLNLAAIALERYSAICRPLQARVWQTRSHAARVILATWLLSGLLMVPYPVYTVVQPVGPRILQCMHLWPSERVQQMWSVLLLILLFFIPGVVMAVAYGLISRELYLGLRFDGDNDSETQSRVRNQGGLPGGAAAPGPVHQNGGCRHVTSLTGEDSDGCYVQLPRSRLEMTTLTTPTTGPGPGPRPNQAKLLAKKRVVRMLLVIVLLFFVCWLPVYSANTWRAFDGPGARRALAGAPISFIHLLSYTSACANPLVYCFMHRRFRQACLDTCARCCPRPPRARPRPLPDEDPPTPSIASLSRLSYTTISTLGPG
Experimental: (§1) The biological activity of compounds of the present invention was evaluated employing an initial screening test which rapidly and accurately measured the binding of the tested compound to known CCK receptor sites. […] (See Hays et al, Neuropeptides 1:53-62, 1980; and Satuer et al, Science, 208:1155-1156, 1980.
(§2) In this screening test, the cerebral cortices taken from male CFLP mice weighing between 30-40 g were dissected on ice, weighed, and homogenized in 10 volumes of 50 mM Tris-HCl buffer (pH 7.4 at 0°-4° C.). The resulting suspension was centrifuged, the supernate was discarded, and the pellet was washed by resuspension in Tris-HCl buffer followed by recentrifugation. The final pellet was resuspended in 20 volumes of […] Hepes buffer (pH 7.2 at 23° C.) containing 130 mM NaCl, […] KCl, […] MgCl2, […] EDTA, 5 mg/mL bovine albumin, and bacitracin (0.25 mg/mL).
(§3) In saturation studies, cerebral cortical membranes were incubated at 23° C. for 120 minutes in a final volume of 500 μliter of Hepes incubation buffer (pH 7.2) together with 0.2-20 nM tritiated-pentagastrin (Amersham International, England).
(§4) In the displacement experiments, membranes were incubated with a single concentration (2 nM) of ligand, together with increasing concentrations ([…]) of competitive test compound. In each case, the nonspecific binding was defined as that persisting in the presence of the unlabeled octapeptide CCK26-33 (10^-6 M).
(§5) Following incubation, radioactivity bound to membranes was separated from that free in solution by rapid filtration through Whatman GF/B filters and washed three times with 4 mL of ice cold Tris-HCl buffer. Filters from samples incubated with tritiated-pentagastrin were placed in polyethylene vials with 4 mL of scintillation cocktail, and the radioactivity was estimated by liquid scintillation spectrometry (efficiency 47% to 52%).
(§6) The specific binding to CCK receptor sites was defined as the total bound tritiated-pentagastrin minus the amount of tritiated-pentagastrin bound in the presence of 10^-6 octapeptide, CCK26-33.
(§7) Saturation curves for specific tritiated-pentagastrin binding to mouse cortical membranes were analyzed by the methods of Scatchard (Ann. New York Acad. Sci. 51:660 672, 1949, and Hill (J. Physiol. 40:IV-VIII, 1910, to provide estimates for the maximum number of binding sites (Bmax) and the equilibrium dissociation constant ([…]).
(§8) In displacement experiments, inhibition curves were analyzed by either logit-log plots or the iterative curve fitting computer program ALLFIT (DeLean, Munson and Redbard, 1978) to provide estimates of the IC50 and nH (apparent Hill coefficient) values). (IC50 values were defined as the concentration of test compound required to produce 50% inhibition of specific binding.)
(§9) The inhibition constant (Ki) of the test compound was then calculated according to the Cheng-Prusoff equation: [formula] where [L] is the concentration of radiolabel and Ka is the equilibrium dissociation constant.
The Ki values for several representative compounds of the present invention are present in Table II.

CCK-B receptor = biological target: T2, CCK-B receptor (Mus musculus, UniProt P56481); assay: Binding to the CCK-B receptor (Table III); design: species or system mouse (male CFLP)
T2 construct: from tissue
T2 sequence (P56481 1-453): T1 sequence (P56481 1-453)
Experimental: as §1, §2, §3, §4, §5, §6, §7, §8, §9

[1] = system: aspirin-induced gastric damage; assay: Aspirin-induced gastric damage; format: in vivo, rat; settings: 15 mg/kg PO, p <0.001 compared with controls
Experimental: Aspirin-induced gastric damage is assessed in groups of 10 rats each. All animals are fasted for 24 hours before and throughout the experiment. Drug or vehicle is given 10 minutes before an oral dose of 1 mL of a 45-mg/mL suspension of aspirin in 0.5% carboxymethylcellulose (CMC). The animals are sacrificed 5 hours after aspirin administration and the stomachs removed and opened for examination. |Gastric damage is scored as follows: |1 Small hemorrhage |2 Large hemorrhage |3 Small ulcer |4 Large ulcer |5 Perforated ulcer

Row | SMILES | Ki (Central CCK Receptors) | Ki (CCK-B receptor) | inhibition of ulcer formation ([1]; 10 minutes before aspirin) | ulcer score ([1]; ±SD, saline control 12.1±6.85) | Ki CCK-B (CCK-B receptor)
1 | CC1(C(=O)NCC(NC(=O)CC(=O)O)c2ccccc2)Cc2c([nH]c3ccccc23)CN1C(=O)OC1C2CC3CC(C2)CC1C3 (mixture of isomers) [Example 14, 3-[[[2-[(3-Carboxyacetyl)amino]-2-phenethyl]-amino]-carbonyl]-1,3,4,9-tetrahydro-3-methyl-2H-pyrido[3,4-b]indole-2-carboxylic acid, [tricyclo-[3.3.1.1^3,7]dec-2-yl ester (mixture of diastereomers)] | 1000 nM | 1000 nM | – | – | –
2 | CNC(=C[N+](=O)[O-])NCCSCc1ccc(CN(C)C)o1 [ranitidine] | – | – | 74% | 3.2±2.35 | –
3 | C[C@]1(C(=O)N[C@H](CO)Cc2ccccc2)Cc2c([nH]c3ccccc23)CN1C(=O)OC1C2CC3CC(C2)CC1C3 (stereo partly drawn) [Example 5] | 730 nM | 730 nM | – | – | –
4 | CC1(C(=O)N[C@H](CNC(=O)CCC(=O)O)Cc2ccccc2)Cc2c([nH]c3ccccc23)CN1C(=O)OC1C2CC3CC(C2)CC1C3 (mixture of isomers) [Example 16, 3-[[1-(3-Carboxy-1-oxopropyl)amino]methyl]-1-phenethyl]amino]carbonyl]-1,3,4,9-tetrahydro-3-methyl2H-pyrido[3,4-b]indole-2-carboxylic acid, [tricyclo-[3.3.1.1^3,7]dec-2 yl ester (mixture of diastereomers)] | 305 nM | 305 nM | – | – | –
5 | CC1(C(=O)NCC(OC(=O)CCC(=O)O)c2ccccc2)Cc2c([nH]c3ccccc23)CN1C(=O)OC1C2CC3CC(C2)CC1C3 (stereo not drawn) [Example 13] | 1000 nM | 1000 nM | – | – | –
6 | CC1(C(=O)NCCc2ccccc2)Cc2c([nH]c3ccccc23)CN1C(=O)OC1C2CC3CC(C2)CC1C3 (racemic) [Example 1, (±)1,3,4,9-Tetrahydro-3-methyl-3-[[2-phenylethyl)amino]carbonyl]-2H-pyrido[3,4-b]indole-2-carboxylic acid,tricyclo[3.3.1.1^3,7]dec-2-yl ester] | 150 nM | 150 nM | – | – | –
7 | C[C@@]1(C(=O)NCCc2ccccc2)Cc2c([nH]c3ccccc23)CN1C(=O)OC1C2CC3CC(C2)CC1C3 (stereo partly drawn) [Example 3] | – | – | – | – | iA
8 | CC1(C(=O)N[C@H](CO)Cc2ccccc2)Cc2c([nH]c3ccccc23)CN1C(=O)OC1C2CC3CC(C2)CC1C3 (mixture of isomers) [Example 4, 1,3,4,9-Tetrahydro-3-[[[1-(hydroxymethyl)-2-phenylethyl]amino]carbonyl]-3-methyl-2H-pyrido[3,4-b]indole-2-carboxylic acid,tricyclo[3.3.1.1^3,7]dec-2-yl ester (mixture of diastereomers)] | 500 nM | 500 nM | – | – | –
9 | CC1(C(=O)NCCc2ccccc2)Cc2c([nH]c3ccccc23)CN1S(=O)(=O)NC1C2CC3CC(C2)CC1C3 (racemic) [Example 19, (+/-)-1,3,4,9-Tetrahydro-3-methyl-N-(2-phenylethyl)-2-(tricyclo[(3.3.1.1^3,7]dec-2-ylamino]sulfonyl]1H-pyrido-[3,4-b]indole-3-carboxamide] | – | – | – | – | iA
10 | CC1(C(=O)NCC(NC(=O)/C=C\C(=O)O)c2ccccc2)Cc2c([nH]c3ccccc23)CN1C(=O)OC1C2CC3CC(C2)CC1C3 (mixture of isomers) [Example 15, 3-[[[2-[(3-Carboxy-1-oxo-2-propenyl)amino]-b 2-phenethyl]amino]carbonyl]1,3,4,9-tetrahydro-3-methyl-2H-pyrido[3,4-b]indole-2-carboxylic acid, [tricyclo-[3.3.1.1^3.7]dec-2-yl ester (mixture of diastereomers)] | 710 nM | 710 nM | – | – | –
11 | CC(C)(C)OC(=O)N1Cc2[nH]c3ccccc3c2CC1C(=O)NC(Cc1ccccc1)C(=O)O (stereo not drawn) [Example 18, 3-[[1(I-Carboxy-2-phenethyl)amino]carbonyl]-1,3,4,9-tetrahydro-2H-pyrido[3,4-b]indole-2-carboxylic acid, 1,1-dimethylethyl ester] | 6000 nM | 6000 nM | – | – | –
12 | CC1(C(=O)NCC(NC(=O)CCC(=O)O)c2ccccc2)Cc2c([nH]c3ccccc23)CN1C(=O)OC1C2CC3CC(C2)CC1C3 (stereo not drawn) [Example 9, 3-[[[2-(3-Carboxy-1-oxopropyl)-amino]-2-phenylethyl]amino]carbonyl]-1,3,4,9-tetrahydro-3-methyl-2H-pyrido[3,4-b]indole-2-carboxylic acid, tricyclo[3.3.1.1^3,7]dec-2-yl ester, [R-(R*,R*)] and [R-(R*,S*)]-] | 500 nM | 500 nM | – | – | –
13 | O=C(NCCc1ccccc1)C1Cc2c([nH]c3ccccc23)CN1C(=O)OC1C2CC3CC(C2)CC1C3 (racemic) [Example 17] | 990 nM | 990 nM | – | – | –
14 | CC1(C(=O)NCC(N)c2ccccc2)Cc2c([nH]c3ccccc23)CN1C(=O)OC1C2CC3CC(C2)CC1C3 (mixture of isomers) [Example 8, 3-[[(2-Amino-2-phenylethyl)amino]carbonyl]-1,3,4,9-tetrahydro-3-methyl]-2H-pyrido[3,4-b]indole-2-carboxylic acid, tricyclo[3.3.1.1^3,7]dec-2-yl ester, (mixtures of diastereomers)] | 3000 nM | 3000 nM | – | – | –
15 | CC1(C(=O)NCC(O)c2ccccc2)Cc2c([nH]c3ccccc23)CN1C(=O)OC1C2CC3CC(C2)CC1C3 (stereo not drawn) [Example 12] | 710 nM | 710 nM | – | – | –
16 | C[C@]1(C(=O)NCCc2ccccc2)Cc2c([nH]c3ccccc23)CN1C(=O)OC1C2CC3CC(C2)CC1C3 (stereo partly drawn) [Example 2] | 600 nM | 600 nM | – | – | –
17 | C[C@@]1(C(=O)N[C@H](CO)Cc2ccccc2)Cc2c([nH]c3ccccc23)CN1C(=O)OC1C2CC3CC(C2)CC1C3 (stereo partly drawn) [Example 6, (S)-1,3,4,9-Tetrahydro-3-[[[1-(hydroxymethyl)-2-phenylethyl]amino]carbonyl]-3-methyl-2H-pyrido[3,4-b]indole-2-carboxylic acid,tricyclo[3.3.1.1^3,7]dec-2-yl ester ester] | 1500 nM | 1500 nM | – | – | –
18 | CC1(C(=O)N[C@@H](CO)[C@@H](O)c2ccccc2)Cc2c([nH]c3ccccc23)CN1C(=O)OC1C2CC3CC(C2)CC1C3 (stereo partly drawn) [Example 7, 1,3,4,9-Tetrahydro-3-[[[1-(hydroxymethyl)-2-hydroxy-2-phenylethyl]amino]carbonyl]-3-methyl-2H-pyrido[3,4-b]-indole-2-carboxylic acid,tricyclo[3.3.1.1^3,7]dec-2-yl ester] | 860 nM | 860 nM | – | – | –
19 | CC1(C(=O)NCC(NC(=O)CCC(=O)OCc2ccccc2)c2ccccc2)Cc2c([nH]c3ccccc23)CN1C(=O)OC1C2CC3CC(C2)CC1C3 (mixture of isomers) [Example 11, 3-[3-[3-[2-[2-[1,4-Dioxo-4-(phenylmethoxy)butyl]amino]-2-phenylethyl]amino]carbonyl]-1,3,4,9-tetrahydro-3-methyl]-2H-pyrido[3,4-b]indole-2-carboxylic acid, tricyclo[3.3.1.1^3.7]dec-2-yl ester (mixture of diastereomers)] | 3000 nM | 3000 nM | – | – | –
